Assay results: patent US9055743B2, “Alpha, beta-unsaturated imines” (BAYER INTELLECTUAL PROPERTY GMBH, priority 2010, dated 2015)

What was measured:
Format in all cases: in vivo
Ctenocephalides felis = Ctenocephalides felis oral test (CTECFE); details: 100 ppm in citrated cattle blood, after two days
Procedure: Ctenocephalides Felis Oral Test (CTECFE)
Solvent: 1 Part by Weight of Dimethyl Sulphoxide
To produce a suitable preparation of active compound, 10 mg of active compound are mixed with 0.5 ml of dimethyl sulphoxide. Part of the concentrate is diluted with citrated cattle blood, and the desired concentration is prepared.
About 20 unfed adult fleas (Ctenocephalides felis) are placed into a chamber which is closed at the top and bottom with gauze. A metal cylinder whose bottom end is closed with parafilm is placed onto the chamber. The cylinder contains the blood/active compound preparation, which can be taken up by the fleas through the parafilm membrane. After two days, the kill in % is determined 100% means that all fleas have been killed; 0% means that none of the fleas have been killed.

Aedes aegypti = assay: Aedes test (AEDSAE surface treatment); details: for knock-down activity: 100 mg/m^2, two hours after contact, exposition 30 minutes
Procedure: Aedes Test (AEDSAE Surface Treatment)
To produce a suitable preparation of active compound, the active compound is dissolved in acetone (2 mg/ml). The active compound preparation is pipetted onto a glazed tile and, after drying, adult mosquitoes of the species Aedes aegypti are placed onto the treated tile. The exposition time is 30 minutes.
Two hours after contact to the treated surface, the knock-down proportion of the test animals in % is determined.
24 hours after contact to the treated surface, the mortality in % is determined Here, 100% means that all mosquitoes have been killed; 0% means that none of the mosquitoes has been killed.

[1] = system: Boophilus microplus strain Parkhurst, SP-resistant; assay: Boophilus microplus test (DIP); details: 100 ppm, after 7 days
Procedure: Boophilus microplus Test (DIP) Test Animals: Adult Fat Females of the Boophilus microplus Strain Parkhurst—SP-Resistant) Solvent: Dimethyl Sulphoxide
10 mg of active compound are dissolved in 0.5 ml of dimethyl sulphoxide. To produce a suitable formulation, the active compound solution is diluted with water to the particular desired concentration.
This active compound preparation is pipetted into tubes. 8-10 ticks are transferred into a further tube provided with holes. The tube is dipped into the active compound preparation, with all the ticks being wetted completely. After the liquid has run off, the ticks are transferred to filter discs in plastic dishes and kept in a climatized room. After 7 days, the activity is checked for deposition of fertile eggs. Eggs whose fertility is not visible from the outside are kept in glass tubes in a climatized cupboard until the larvae have hatched. An activity of 100% means that no tick has laid fertile eggs.

[2] = system: larvae of the mustard beetle (Phaedon cochleariae); assay: Phaedon test (PHAECO spray treatment); details: 500 g/ha, spray, after 7 days
Outline: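 Mustard beetle larvae were placed on dried Brassica pekinensis leaf discs previously spray-treated with test compound; formulation used acetone and dimethylformamide solvents plus alkylaryl polyglycol ether emulsifier, diluted with emulsifier-containing water.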

Lucilia cuprina larvae = assay: Lucilia cuprina test (LUCICU); details: 100 ppm, after 2 days
Procedure: Lucilia cuprina Test (LUCICU)
(§1) Solvent: Dimethyl Sulphoxide
(§2) To produce a suitable preparation of active compound, 10 mg of active compound are mixed with 0.5 ml of dimethyl sulphoxide and the concentrate is diluted with water to the desired concentration. Vessels containing horsemeat treated with the active compound preparation of the desired concentration are populated with about 20 Lucilia cuprina larvae.
After 2 days, the kill in % is determined. 100% means that all larvae have been killed; 0% means that none of the larvae have been killed.

Boophilus microplus = Boophilus microplus test (BOOPMI injection); details: 20 μg/animal, injection into the abdomen, after 7 days
Procedure: Boophilus microplus Test (BOOPMI Injection)
as §1
To produce a suitable preparation of active compound, 10 mg of active compound are mixed with 0.5 ml of solvent and the concentrate is diluted with solvent to the desired concentration. The solution of active compound is injected into the abdomen (Boophilus microplus), and the animals are transferred into dishes and kept in a climatized room. The activity is assessed by […] of fertile eggs.
After 7 days, the effect in % is determined 100% means that none of the ticks has laid any fertile eggs.

[3] = system: cat fleas (Ctenocephalides felis, fully sensitive laboratory strain); assay: Contact test against fleas in-vitro (CTECFE contact); details: 500 g/ha, after 48 h
Outline: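 Test tubes coated from acetone solutions by rotation, top concentration 500 g/ha (500 μg/dm^2) on tube surface, serial 1:5 dilutions. 10-20 CO2-anesthetized adult fleas held at room temperature for 24 and 48 h. Activity scored versus acetone control: knock-down or death of all fleas = 100%.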

[4] = system: Anopheles gambiae (homocygus kdr); assay: Anopheles test (ANPHGB surface treatment); details: for knock-down activity: 100 mg/m^2, two hours after contact, exposition 30 minutes
Outline: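 Adult mosquitoes held 30 min on a glazed tile treated with a dried 2 mg/ml acetone solution of compound. Mortality scored at 24 h (100% = all killed), knock-down percentage at 2 h post-contact.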

[5] = system: caterpillars of the army worm (Spodoptera frugiperda); assay: Spodoptera frugiperda test (SPODFR spray treatment); details: 500 g/ha, spray, after 7 days
Outline: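 Activity in % read 7 days after armyworm caterpillars were placed on dried, sprayed Zea mays leaf discs; 0% means none killed. Spray prepared from an acetone/DMF concentrate with emulsifier, diluted with emulsifier-containing water.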

[6] = system: greenhouse red spider mite (Tetranychus urticae); assay: Tetranychus test; OP-resistant (TETRUR spray treatment); details: 500 g/ha, spray, after 6 days
Outline: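 Activity, as % of mites killed (0–100%), was assessed 6 days after spraying. The spray was compound formulated with acetone, DMF and emulsifier, then diluted in water. It was applied to Phaseolus vulgaris leaf discs carrying every life stage of an OP-resistant spider mite strain.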

Musca domestica = Musca domestica test (MUSCDO); details: 100 ppm, after 2 days
Procedure: Musca domestica Test (MUSCDO)
as §1
as §2, with “a sponge” for “horsemeat”, “adult Musca domestica.” for “about 20 Lucilia cuprina larvae.”
After 2 days, the kill in % is determined 100% means that all flies have been killed; 0% means that none of the flies have been killed.

[7] = system: green peach aphid (Myzus persicae); assay: Myzus test (MYZUPE spray treatment); details: 500 g/ha, spray, after 6 days
Outline: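 Activity read as % aphid kill 6 days after treatment (0% = none killed). Compound formulated in acetone and dimethylformamide plus alkylaryl polyglycol ether, diluted in water and sprayed onto infested Brassica pekinensis leaf discs.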

Cc1ccc(N=C2C(=CSc3ccc(F)cc3)CCc3c(F)cccc32)cc1 (mixture of isomers) [Example 1-34]
activity (kill in %) (Ctenocephalides felis): 100% | knock-down activity (Aedes aegypti): 100% | activity (100% = no tick has laid fertile eggs) [1]: 80% | activity (beetle larvae killed) [2]: 100% | activity (kill in %) (Lucilia cuprina larvae): 100% | activity (100% = none of the ticks has laid any fertile eggs) (Boophilus microplus): 100% | activity against cat fleas [3]: 100% | knock-down activity [4]: 100% | activity (caterpillars killed) [5]: 100%

CCC1C(=CSc2ccc(F)cc2)C(=Nc2ccc(C)cc2)c2ccccc21 (mixture of isomers) [Example 1-37]
activity (kill in %) (Ctenocephalides felis): 100% | activity (spider mites killed) [6]: 100% | activity (beetle larvae killed) [2]: 100% | activity (kill in %) (Lucilia cuprina larvae): 100% | activity (kill in %) (Musca domestica): 90% | activity (100% = none of the ticks has laid any fertile eggs) (Boophilus microplus): 100% | activity against cat fleas [3]: 100% | activity (aphids killed) [7]: 100% | activity (caterpillars killed) [5]: 100%

Cc1ccc(N=C2/C(=C/Sc3ccccc3)CCc3ccccc32)cc1 [Example 1-1]
activity (kill in %) (Ctenocephalides felis): 80% | knock-down activity (Aedes aegypti): 100% | mortality at 100 mg/m2 (Aedes aegypti; Aedes aegypti, read-out: activity (mortality in %)): 100% | activity (100% = no tick has laid fertile eggs) [1]: 100% | pest or weed control at 500 g/ha ([6]; Tetranychus urticae, 144 h, read-out: activity (spider mites killed)): 100% | pest or weed control at 500 g/ha ([2]; Phaedon cochleariae, 168 h, read-out: activity (beetle larvae killed)): 100% | activity (kill in %) (Lucilia cuprina larvae): 100% | activity (100% = none of the ticks has laid any fertile eggs) (Boophilus microplus): 100% | activity against cat fleas [3]: 100% | pest or weed control at 500 g/ha ([7]; Myzus persicae, 144 h, read-out: activity (aphids killed)): 100% | knock-down activity [4]: 100% | mortality at 100 mg/m2 ([4]; Anopheles gambiae, read-out: activity (mortality in %)): 100% | pest or weed control at 500 g/ha ([5]; Spodoptera frugiperda, 168 h, read-out: activity (caterpillars killed)): 100%

Cc1ccc(N=C2C(=CSc3ccccc3)CSc3ccccc32)cc1 [Example 1-4]
activity (kill in %) (Ctenocephalides felis): 100% | activity (100% = no tick has laid fertile eggs) [1]: 100% | activity (spider mites killed) [6]: 100% | activity (beetle larvae killed) [2]: 100% | activity (kill in %) (Lucilia cuprina larvae): 100% | activity (100% = none of the ticks has laid any fertile eggs) (Boophilus microplus): 100% | activity against cat fleas [3]: 100% | activity (aphids killed) [7]: 100% | knock-down activity [4]: 100% | activity (caterpillars killed) [5]: 100%

COc1ccc(N=C2C(=CSc3ccccc3)CCc3ccccc32)cc1 [Example 1-10]
activity (kill in %) (Ctenocephalides felis): 80% | activity (spider mites killed) [6]: 100% | activity (beetle larvae killed) [2]: 100% | activity (kill in %) (Lucilia cuprina larvae): 90% | activity (kill in %) (Musca domestica): 100% | activity (100% = none of the ticks has laid any fertile eggs) (Boophilus microplus): 100% | activity against cat fleas [3]: 100% | knock-down activity [4]: 95% | activity (caterpillars killed) [5]: 100%

Cc1ccc(N=C2C(=CSc3ccc(F)cc3)CCc3occc32)cc1 [Example 1-29]
activity (kill in %) (Ctenocephalides felis): 80% | knock-down activity (Aedes aegypti): 90% | activity (100% = no tick has laid fertile eggs) [1]: 100% | activity (spider mites killed) [6]: 100% | activity (beetle larvae killed) [2]: 100% | activity (kill in %) (Lucilia cuprina larvae): 100% | activity (kill in %) (Musca domestica): 100% | activity against cat fleas [3]: 100% | activity (aphids killed) [7]: 100% | activity (caterpillars killed) [5]: 100%

Cc1ccc(N=C2C(=CSc3ccc(Cl)cc3)CCc3ccccc32)cc1 [Example 1-59]
activity (kill in %) (Ctenocephalides felis): 100% | activity (100% = no tick has laid fertile eggs) [1]: 100% | activity (spider mites killed) [6]: 100% | activity (beetle larvae killed) [2]: 100% | activity (kill in %) (Lucilia cuprina larvae): 90% | activity (100% = none of the ticks has laid any fertile eggs) (Boophilus microplus): 100% | activity against cat fleas [3]: 100% | activity (aphids killed) [7]: 100% | activity (caterpillars killed) [5]: 100%

Cc1ccc(N=C2C(=CSc3cccc(Cl)c3)CCc3ccccc32)cc1 [Example 1-62]
activity (kill in %) (Ctenocephalides felis): 100% | activity (100% = no tick has laid fertile eggs) [1]: 100% | activity (spider mites killed) [6]: 100% | activity (beetle larvae killed) [2]: 100% | activity (kill in %) (Lucilia cuprina larvae): 80% | activity (100% = none of the ticks has laid any fertile eggs) (Boophilus microplus): 100% | activity against cat fleas [3]: 100% | activity (aphids killed) [7]: 100% | knock-down activity [4]: 100% | activity (caterpillars killed) [5]: 100%

Cc1ccc(N=C2C(=CSc3ccc(F)c(F)c3)CCc3ccccc32)cc1 [Example 1-74]
activity (kill in %) (Ctenocephalides felis): 80% | knock-down activity (Aedes aegypti): 95% | activity (spider mites killed) [6]: 100% | activity (beetle larvae killed) [2]: 100% | activity (kill in %) (Lucilia cuprina larvae): 100% | activity (100% = none of the ticks has laid any fertile eggs) (Boophilus microplus): 100% | activity against cat fleas [3]: 100% | activity (aphids killed) [7]: 100% | knock-down activity [4]: 100% | activity (caterpillars killed) [5]: 100%

Cc1ccc(N=C2C(=CSc3ccc(F)cc3F)CCc3ccccc32)cc1 [Example 1-79]
activity (kill in %) (Ctenocephalides felis): 100% | knock-down activity (Aedes aegypti): 100% | activity (spider mites killed) [6]: 100% | activity (beetle larvae killed) [2]: 100% | activity (kill in %) (Lucilia cuprina larvae): 100% | activity (100% = none of the ticks has laid any fertile eggs) (Boophilus microplus): 100% | activity against cat fleas [3]: 100% | activity (aphids killed) [7]: 100% | knock-down activity [4]: 100% | activity (caterpillars killed) [5]: 100%

Cc1ccc(N=C2C(=CSc3ccccc3F)CCc3ccccc32)cc1 [Example 1-80]
activity (kill in %) (Ctenocephalides felis): 90% | knock-down activity (Aedes aegypti): 80% | activity (spider mites killed) [6]: 100% | activity (beetle larvae killed) [2]: 100% | activity (kill in %) (Lucilia cuprina larvae): 100% | activity (100% = none of the ticks has laid any fertile eggs) (Boophilus microplus): 100% | activity against cat fleas [3]: 100% | activity (aphids killed) [7]: 100% | knock-down activity [4]: 100% | activity (caterpillars killed) [5]: 100%

Cc1ccc(N=C2C(=CSc3ccc(C(F)(F)F)cc3)CCc3ccccc32)cc1 [Example 1-82]
activity (kill in %) (Ctenocephalides felis): 100% | activity (spider mites killed) [6]: 100% | activity (beetle larvae killed) [2]: 100% | activity (kill in %) (Lucilia cuprina larvae): 100% | activity (100% = none of the ticks has laid any fertile eggs) (Boophilus microplus): 100% | activity against cat fleas [3]: 100% | activity (aphids killed) [7]: 100% | knock-down activity [4]: 100% | activity (caterpillars killed) [5]: 100%
